# Results as given in patent publication US12655101B2, “Small molecules with antibacterial activity” (NEW MEXICO TECH UNIVERSITY RESEARCH PARK CORPORATION, priority 2021, dated 2026).
# Legend:
# Type in all cases: cell-based
# [1] = test system: A. baumannii ATCC BAA-1797; assay: Synergy of gentamicin and Compound 25, colony counts; details: 18 hours
# Experimental: Cells were cultured using methods described above. 500 μL of the adjusted bacterial cell suspensions were placed into borosilicate glass tubes, where the cell suspensions were treated with 100 μg/mL gentamicin, 2 μM Compound 25, or a combination of 100 μg/mL gentamicin plus 2 μM Compound 25. The culture tubes were incubated for 18 hours at 37° C. Colony counts were performed by 10-fold serially diluting the samples into fresh MHB and drip-streaking 10 μL from each dilution series onto MHA. The plates were incubated at 37° C. for 18 hours before the CFU/mL were determined by visual cell counts.
# 500 μL aliquots of the adjusted bacterial cell suspensions were placed into borosilicate glass tubes, where the cell suspensions were treated with 50 μg/mL gentamicin, 2 μM Compound 25, or a combination of 50 μg/mL gentamicin plus 2 μM Compound 25. The culture tubes were incubated for 18 hours at 37° C.
# [2] = test system: A. baumannii ATCC 15151; assay: Synergy of kanamycin and Compound 25, colony counts
# Experimental: Bacterial cells were prepared using methods described above. 500 μL aliquots of the adjusted bacterial cell suspensions were placed into borosilicate glass tubes, where the cell suspensions were treated with 12.5 μg/mL kanamycin, 1 μM or 2 μM Compound 25, or a combination of 12.5 μg/mL kanamycin plus 1 μM or 2 μM Compound 25. The culture tubes were incubated for 18 hours at 37° C. Colony counts were performed by 10-fold serially diluting the samples into fresh MHB and drip-streaking 10 μL from each dilution series onto MHA. The plates were incubated at 37° C. for 18 hours before the CFU/mL were determined by visual cell counts.
# A. baumannii ATCC 15151 was grown from a glycerol stock by placing a small volume of cells onto a MHA plate. The MHA plate was incubated overnight at 37° C. A single colony was subsequently used to inoculate MHB to obtain a bacterial broth suspension. The MHB broth suspension was grown at 37° C. on a rotary shaking incubator (100 rpm) for 12 hours. The bacterial cell concentration was adjusted to ˜5×10^5 CFU/mL in MHB or MHB+40% FBS using OD at 595 nm. 500 μL aliquots of the adjusted bacterial cell suspensions were placed into borosilicate glass tubes. Cell suspensions were treated with 6 μg/mL or 12.5 μg/mL kanamycin, 1 μM, 2 μM, or 10 μM Compound 25, or a combination of 6 μg/mL or 12.5 μg/mL […] plus 1 μM, 2 μM, or 10 μM Compound 25. The culture tubes were incubated for 18 hours at 37° C. Colony counts were determined by 10-fold serially diluting the samples into fresh MHB and drip-streaking 10 μL from each dilution series onto MHA. The plates were incubated at 37° C. for 18 hours before the CFU/mL were determined by visual cell counts.
# [3] = test system: A. baumannii ATCC BAA-1797; assay: DNA degradation (agarose gel), drug-resistant strain; details: drug-resistant ATCC BAA-1797; 10 μg/mL ciprofloxacin, 100 μM Compound 25; 5 hours
# [4] = test system: E. coli; assay: Filamentation with ciprofloxacin and Compound 25 on E. coli; details: for cell morphology and growth: 16 hours
# Experimental: E. coli: E. coli was grown from a glycerol stock by placing a small volume of cells onto a MHA plate. The MHA plate was incubated overnight at 37° C. A single colony was subsequently used to inoculate MHB to obtain a bacterial broth suspension. The MHB broth suspension was grown at 37° C. on a rotary shaking incubator (100 rpm) for 12 hours. The bacterial cell concentration was adjusted to ˜1×10^7 CFU/mL in MHB using OD at 595 nm. […] The culture tubes were incubated for 16 hours at 37° C. After 16 hours incubation, took 3 μL of cells from each well and plated on microscope slide to observe the following: […]
# [5] = test system: A. baumannii ATCC 15151; assay: Filamentation with ciprofloxacin and Compound 25 on A. baumannii; details: for cell morphology and growth: 18 hours
# Experimental: A. baumannii ATCC 15151: […] The culture tubes were incubated for 18 hours at 37° C. After 18 hours incubation, took 3 μL of cells from each well and plated on microscope slide to observe the following: […]
# [6] = test system: H. pylori Hp A-4; assay: Direct comparison of Compound 26 in 5% FBS on H. pylori and A. baumannii
# Experimental: A direct comparison of Compound 26 in 5% […] on H. pylori Hp A-4 and A. baumannii BAA-1797 was performed. The conditions were standard liquid culture conditions for each organism in 5% FBS. A lawn of H. pylori Hp A-4 on a blood agar plate was prepared. 1 μL of Compound 26 at various concentrations and 1 μL of 100% sterile DMSO were spotted on the blood agar plate. The plate was incubated for 4 days at 37° C. in 5% CO2.
# [7] = test system: E. coli pUC18; assay: Nitrocefin β-lactamase assay (outer membrane disruption); details: 10 μM melittin; 10 μg/mL PME; 6, 12, 24 μM Compound 25 and 26; 100 μM Compound 27; 50 μM Compound 15; 30 minutes
# Experimental: E. coli pUC18 was grown from a glycerol stock by placing a small volume of cells onto a MHA plate. The MHA plate was incubated overnight at 37° C. A single colony was subsequently used to inoculate MHB+100 μg/mL ampicillin to obtain a bacterial broth suspension. The MHB broth suspension was grown at 37° C. on a rotary shaking incubator (100 rpm) for 12 hours. The cells were washed 3× by centrifuging and washing with 1 mL medium 200. The washed bacterial cell concentration was adjusted to ˜1×10^7 CFU/mL in medium 200 using OD at 595 nm. The cells were treated cells with 10 μM melittin; 6, 12, 24 μM Compound 25; 6 μM, 12 μM, 24 μM Compound 26; 100 μM Compound 27; 50 μM Compound 15; and 10 μg/mL PME. The cells were incubated at 37° C. for 30 minutes; added 50 μM nitrocefin and incubated 10 minutes at 37° C.
# pUC18 E. coli carry an ampicillin resistance gene and produce β-lactamase.
# [8] = 20 μM Compound 25+25 ng/mL ciprofloxacin
# [9] = […] Compound 25+50 ng/mL ciprofloxacin
smiles,measurement,setting,value
"Brc1ccc(N/N=C/c2c[nH]c3cccc(OCc4ccccc4)c23)cc1.Cl [Compound 25, (E)-2-((4-(benzyloxy)-1H-indol-3-yl)methylene)-1-(4-bromophenyl)hydrazin-1-ium chloride]","synergy, full cell death",[1]; 50 μg/mL gentamicin+2 μM Compound 25,4 orders of magnitude
same,"synergy, full cell death",[1]; 100 μg/mL gentamicin+2 μM Compound 25,8 orders of magnitude
same,"synergy, logs of kill","[2]; 12.5 μg/mL kanamycin+1 μM Compound 25, 18 hours",2.5 logs of kill
same,"synergy, full cell death","[2]; 12.5 μg/mL kanamycin+2 μM Compound 25, 18 hours",9 orders of magnitude
same,"synergy, logs of kill","[2]; 40% FBS, 12.5 μg/mL kanamycin+10 μM Compound 25",9 logs of kill
same,"synergy, logs of kill","[2]; without serum, 6 μg/mL kanamycin+2 μM Compound 25",8 logs of kill
same,ds DNA damage,[3],Neither Ciprofloxacin Nor Compound 25 Caused ds DNA Damage
same,inhibition of ciprofloxacin-induced filamentation,[4]; [8],only slightly inhibited
same,cell morphology and growth,[4]; [8],elongated in morphology and growth inhibition was observed
same,cell morphology and growth,[4]; single agent: 25 ng/mL ciprofloxacin or 20 μM Compound 25,morphologically normal and growth inhibition was observed
same,inhibition of ciprofloxacin-induced filamentation,[5]; [9],only slightly inhibited
same,cell morphology and growth,[5]; [9],elongated in morphology and growth inhibition was observed
same,cell morphology and growth,[5]; single agent: 50 ng/mL ciprofloxacin or […] Compound 25,morphologically normal and full growth was observed
"Cl.Clc1ccc(N/N=C/c2c[nH]c3cccc(OCc4ccccc4)c23)cc1 [Compound 26, (E)-2-((4-(benzyloxy)-1H-indol-3-yl)methylene)-1-(4-chlorophenyl)hydrazin-1-ium]",increase in anti-bacterial activity for H. pylori compared to A. baumannii,[6],16.6 fold
"Cl.Fc1ccc(N/N=C/c2c[nH]c3cccc(OCc4ccccc4)c23)cc1 [Compound 27, (E)-2-((4-(benzyloxy)-1H-indol-3-yl)methylene)-1-(4-fluorophenyl)hydrazin-1-ium]","outer membrane disruption (β-lactamase leakage, nitrocefin colour)",[7],caused outer membrane disruption
